Consider ten molecules from ChEMBL document CHEMBL3352405, “Design and synthesis of sulfamoyl benzoic acid analogues with subnanomolar agonist activity specific to the LPA2 receptor” (J Med Chem, 2014).

Experiment [1] has as its target T1, Lysophosphatidic acid receptor 2 (Homo sapiens, UniProt Q9HBW0). The experiment in a line: Agonist activity at human LPA2 expressed in LPA1xLPA2 double knockout mouse MEF cells by Fura-2AM dye based Ca2+ mobilization assay. The format is functional, cell-based. A general note: Calcium assays in cells follow changes in intracellular calcium, usually with a dye or a luminescent sensor.

The target in experiment [2] is T1, Lysophosphatidic acid receptor 2. The experiment in a line: Agonist activity at human LPA2 expressed in LPA1xLPA2 double knockout mouse MEF cells by Fura-2AM dye based Ca2+ mobilization assay relative to LPA 18:1. The format is functional, cell-based.
Experiment [3] deals with T2, Lysophosphatidic acid receptor 3 (Homo sapiens, UniProt Q9UBY5).
T2 sequence (Q9UBY5 whole entry): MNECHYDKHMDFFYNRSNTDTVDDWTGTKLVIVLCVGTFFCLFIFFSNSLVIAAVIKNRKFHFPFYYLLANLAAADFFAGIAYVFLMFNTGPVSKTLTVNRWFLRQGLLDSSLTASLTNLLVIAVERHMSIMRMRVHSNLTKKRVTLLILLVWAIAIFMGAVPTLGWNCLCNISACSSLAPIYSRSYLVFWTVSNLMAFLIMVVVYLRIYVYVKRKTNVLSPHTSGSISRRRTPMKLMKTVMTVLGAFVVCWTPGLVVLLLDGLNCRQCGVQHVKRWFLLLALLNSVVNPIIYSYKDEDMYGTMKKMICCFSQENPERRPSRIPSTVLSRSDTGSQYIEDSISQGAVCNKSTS
The experiment in a line: Antagonist activity at human LPA3 expressed in RH7777 cells assessed as reduction in […]-induced calcium mobilization by Fura-2AM dye based Ca2+ mobilization assay.

Experiment [4] deals with Lysophosphatidic acid receptor 1 (Homo sapiens, UniProt Q92633). The experiment in a line: Agonist activity at human LPA1 expressed in RH7777 cells up to 10 uM by Fura-2AM dye based Ca2+ mobilization assay.
Lysophosphatidic acid receptor 1, sequence (Q92633 whole entry): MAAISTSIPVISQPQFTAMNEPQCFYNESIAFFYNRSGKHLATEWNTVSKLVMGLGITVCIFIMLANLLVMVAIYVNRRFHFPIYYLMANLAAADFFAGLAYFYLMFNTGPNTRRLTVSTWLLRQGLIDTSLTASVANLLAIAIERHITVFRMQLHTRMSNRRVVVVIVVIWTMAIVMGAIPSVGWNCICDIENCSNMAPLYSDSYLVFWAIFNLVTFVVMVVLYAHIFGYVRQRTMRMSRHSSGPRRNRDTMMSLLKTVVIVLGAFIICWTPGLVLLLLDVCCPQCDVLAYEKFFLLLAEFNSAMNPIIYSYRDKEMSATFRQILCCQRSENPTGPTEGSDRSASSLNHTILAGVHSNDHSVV

T1 sequence (Q9HBW0 whole entry): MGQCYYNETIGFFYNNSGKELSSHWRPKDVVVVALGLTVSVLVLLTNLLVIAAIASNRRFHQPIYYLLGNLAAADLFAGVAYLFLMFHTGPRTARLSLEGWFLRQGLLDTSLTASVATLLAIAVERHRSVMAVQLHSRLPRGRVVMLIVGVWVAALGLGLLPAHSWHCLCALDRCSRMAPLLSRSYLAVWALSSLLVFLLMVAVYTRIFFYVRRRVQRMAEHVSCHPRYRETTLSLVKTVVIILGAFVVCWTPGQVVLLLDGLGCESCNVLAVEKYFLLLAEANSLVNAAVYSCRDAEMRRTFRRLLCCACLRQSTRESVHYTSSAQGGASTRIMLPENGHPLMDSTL

A word on the EC50: it is the concentration that produces a half-maximal response. `O=C(O)c1ccccc1S(=O)(=O)NCCCN1C(=O)c2cccc3cccc(c23)C1=O`: in experiment [1], the EC50 was 2.16 µM.
In general, Emax refers to the maximal effect, on the per cent scale that the assay sets. The molecule `O=C(O)c1ccc(Br)cc1S(=O)(=O)NCCCCN1C(=O)c2cccc3cccc(c23)C1=O` returned an EC50 in experiment [1] of 0.05 µM. The same molecule came in with an Emax in experiment [2] of 100%.
For the molecule `O=C(O)c1ccccc1S(=O)(=O)NCCCCN1C(=O)c2cccc3cccc(c23)C1=O`, it took 0.11 µM to reach a half-maximal effect in experiment [1] (EC50). For the same molecule, the Emax in experiment [2] is 100%.
For `O=C(O)c1ccccc1S(=O)(=O)NCCCCCN1C(=O)c2cccc3cccc(c23)C1=O` the same measures were 1.42 µM and 100%.
With `O=C(O)c1ccc2c(c1)S(=O)(=O)N(CCCCN1C(=O)c3cccc4cccc(c34)C1=O)C2=O`, in experiment [2], the Emax is 100%.
By IC50 is commonly meant the midpoint of a concentration-inhibition curve. For `O=C(O)c1ccccc1SCCCN1C(=O)c2cccc3cccc(c23)C1=O`, in experiment [3], the IC50 is 6.6 µM. The Emax in experiment [2] turned out to be 75%.
`O=C(O)c1cc(Cl)ccc1S(=O)(=O)NCCCCN1C(=O)c2cccc3cccc(c23)C1=O` returned an Emax in experiment [2] of 124%.
For the molecule `O=C(O)c1cc(F)ccc1S(=O)(=O)NCCCCN1C(=O)c2cccc3cccc(c23)C1=O`, the half-maximal effective concentration (EC50) in experiment [1] came out at 0.00015 µM. Also, in experiment [2], the Emax was 119%.
Molecule `CCCCCCCC/C=C\CCCCCCCC(=O)OC[C@@H](O)COP(=O)(O)O` [LYSOPHOSPHATIDIC ACID] had an EC50 in experiment [4] of 0.35 µM.
Consider `O=C(O)c1cc(Br)ccc1S(=O)(=O)NCCCCN1C(=O)c2cccc3cccc(c23)C1=O`, for which the EC50 in experiment [1] worked out at 0.06 µM. In experiment [2], this molecule gave an Emax of 104%.
